Key:
[1] = molecular target: ROCK2 (Homo sapiens, UniProt O75116); assay: ROCK2 kinase IC50 assay (CISBIO HTRF KinEASE-STK S2 kit); type: biochemical; conditions: incubated at room temperature for 2 hours
Protocol: The kinase IC50 was determined by a commercialized CISBIO kinase detection kit, HTRF KinEASE-STK S2 kit (62ST2PEC). ROCK2 (01-119) employed in the reaction was purchased from Carna Biosciences.
Before the assay, the following working solutions as needed were formulated with corresponding reagents according to the instruction of the kinase detection kit: 1×kinase buffer, 5×STK-52 substrate working solution (1.5 μM) and 5×ATP working solution (1.5 μM), 5×ROCK2 kinase working solution, 4×Streptavidin-XL665 working solution, and 4×STK-Ab-Cryptate 2 detection solution. Then the assay was performed according to the following procedure.
A solution of a compound at a concentration of 10000 nM was prepared with the 1×kinase buffer containing 2.5% DMSO. Gradient dilution of the solution of the compound was performed with the kinase buffer containing DMSO, so as to obtain solutions of a test compound at 9 different concentrations. In addition to wells of test compounds, a positive well (containing all the reagents except the compound) and a negative well (containing all the reagents except the test compound and kinase) were set. Except for the control wells (positive and negative wells), a solution of a test compound (4 μL) was added to each of the reaction wells, and a solution of 2.5% DMSO was added to the control wells. Then the substrate ([…], 2 μL. 5×STK-S2 substrate working solution) was added to each of the reaction wells. The 5×ROCK2 kinase working solution (2 μL, containing 1.4 ng ROCK2 kinase) was added to each of the reaction wells except for the negative well, the volume of which was made up with the 1×kinase buffer (2 μL). The 5×ATP working solution (2 μL) was added to each of the reaction wells, and the mixtures were incubated at room temperature for 2 hours. After the kinase reaction was complete, the 4×Streptavidin-XL665 working solution was added to each of the reaction wells, the solutions were mixed, followed by immediate addition of the 4×STK-Ab-Cryptate 2 detection solution (5 μL), and the mixtures were incubated at room temperature for 1 hour. The fluorescence signal was read on ENVISION (Perkinelmer) (excitation wavelength: 320 nm, and emission wavelength: 665 nm and 615 nm). The inhibitory rate in each well was calculated based on the fluorescence intensity value: ER (Emission Ratio)=(fluorescence intensity at 665 nm/fluorescence intensity at 615 nm); inhibitory rate=(ERpositive−ERtest compound)/(ERpositive−ERnegative)*100%. Curves were plotted and fitted to obtain the median inhibitory concentration (IC50) of each teat compound with the PRISM 5.0 software.

[2] = molecular target: ROCK1 (Homo sapiens (Human), UniProt Q13464); assay: ROCK1 kinase IC50 assay (biological test method similar to the ROCK2 assay); type: biochemical
Summary of the method: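 Compound dilution series (9 concentrations, top solution 10000 nM, DMSO-containing buffer) incubated 2 h at room temperature with kinase, STK-S2 substrate and ATP (5× working solutions of 1.5 µM each). Phosphorylation detected by HTRF (665/615 nm emission ratio) after 1 h; inhibition relative to full-reaction and kinase-free wells, fitted for IC50.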

Chain of ROCK1 (Q13464 whole entry, species assumed): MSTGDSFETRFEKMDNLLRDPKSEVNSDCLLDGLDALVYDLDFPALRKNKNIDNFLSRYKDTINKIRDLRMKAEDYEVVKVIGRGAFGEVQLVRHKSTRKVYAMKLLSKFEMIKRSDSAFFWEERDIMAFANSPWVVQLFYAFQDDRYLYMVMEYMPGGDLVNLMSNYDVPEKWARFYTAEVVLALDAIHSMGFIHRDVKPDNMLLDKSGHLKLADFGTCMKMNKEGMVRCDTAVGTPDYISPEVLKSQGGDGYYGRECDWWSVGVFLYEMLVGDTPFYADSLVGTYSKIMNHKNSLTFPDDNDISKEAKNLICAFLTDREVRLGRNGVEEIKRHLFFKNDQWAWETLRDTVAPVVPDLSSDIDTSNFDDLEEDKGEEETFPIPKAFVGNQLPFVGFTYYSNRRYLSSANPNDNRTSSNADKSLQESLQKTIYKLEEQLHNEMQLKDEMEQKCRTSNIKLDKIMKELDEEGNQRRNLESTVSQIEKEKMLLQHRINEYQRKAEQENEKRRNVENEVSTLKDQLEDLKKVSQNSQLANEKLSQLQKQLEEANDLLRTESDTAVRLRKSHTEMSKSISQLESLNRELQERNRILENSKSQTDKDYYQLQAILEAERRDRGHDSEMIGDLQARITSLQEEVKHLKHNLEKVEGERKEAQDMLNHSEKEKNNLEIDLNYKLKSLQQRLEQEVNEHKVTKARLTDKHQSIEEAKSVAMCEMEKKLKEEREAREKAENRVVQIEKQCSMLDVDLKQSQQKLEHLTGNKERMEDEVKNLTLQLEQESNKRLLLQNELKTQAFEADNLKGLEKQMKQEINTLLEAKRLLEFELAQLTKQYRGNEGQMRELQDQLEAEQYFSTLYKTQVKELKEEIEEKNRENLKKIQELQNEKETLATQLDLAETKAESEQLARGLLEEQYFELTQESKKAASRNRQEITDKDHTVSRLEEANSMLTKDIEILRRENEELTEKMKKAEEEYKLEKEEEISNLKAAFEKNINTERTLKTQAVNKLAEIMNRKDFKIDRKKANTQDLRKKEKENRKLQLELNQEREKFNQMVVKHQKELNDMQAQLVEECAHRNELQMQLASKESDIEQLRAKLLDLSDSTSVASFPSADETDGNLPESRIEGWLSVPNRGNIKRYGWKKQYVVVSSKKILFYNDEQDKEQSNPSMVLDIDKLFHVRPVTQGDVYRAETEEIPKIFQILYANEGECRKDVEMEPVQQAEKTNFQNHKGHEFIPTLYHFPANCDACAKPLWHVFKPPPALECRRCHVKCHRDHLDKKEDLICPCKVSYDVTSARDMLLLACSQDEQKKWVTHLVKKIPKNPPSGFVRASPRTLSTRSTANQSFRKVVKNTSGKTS

Structure (SMILES) | IC50 [1] | IC50 [2]
O=C(NC1CC(F)C1)c1cc2ccc(-c3nc(Nc4ccc(-c5cn[nH]c5)cc4)c4sccc4n3)cc2[nH]1 (stereo not shown) [TDI01487, 6-(4-((4-(1H-pyrazol-4-yl)phenyl)amino)thieno [3,2-d]pyrimidin-2-yl)-N-(3-fluorocyclobutyl)-1H-indole-2-carboxamide] | 193 nM | 5040 nM
O=C(c1cc2ccc(-c3nccc(Nc4ccc(-c5cn[nH]c5)cc4)n3)cc2[nH]1)N1CC2C(C1)C2(F)F (stereo not shown) [TDI01490, (6-(4-((4-(1H-pyrazol-4-yl)phenyl)amino)pyrimidin-2-yl)-1H-indol-2-yl)(6,6-difluoro-3-azabicyclo[3.1.0]hexan-3-yl)methanone] | 81 nM | 2250 nM
O=C(c1cc2ccc(-c3nccc(Nc4ccc(-c5cn[nH]c5)cc4)n3)cc2[nH]1)N1CCS(=O)(=O)CC1 [TDI01497, (6-(4-((4-(1H-pyrazol-4-yl)phenyl)amino)pyrimidin-2-yl)-1H-indol-2-yl)(1,1-dioxidothiomorpholino) methanone] | 319 nM | > 10000 nM
O=C(c1cc2ccc(-c3nccc(Nc4ccc(-c5cn[nH]c5)cc4)n3)cc2[nH]1)N1CC(=NO)C1 [TDI01498, (6-(4-((4-(1H-pyrazol-4-yl)phenyl)amino)pyrimidin-2-yl)-1H-indol-2-yl)(3-(hydroxyimino)azetidin-1-yl)methanone] | 415 nM | > 10000 nM
N#CC1CN(C(=O)c2cc3ccc(-c4nccc(Nc5ccc(-c6cn[nH]c6)cc5)n4)cc3s2)C1 [TDI01500, 1-(6-(4-((4-(1H-pyrazol-4-yl)phenyl)-amino)-pyrimidin-2-yl)benzo[b]-thiophene-2-carbonyl)-azetidine-3-carbonitrile] | 13 nM | > 10000 nM
Cn1c(C(=O)N2CCC(O)(C(F)(F)F)C2)cc2ccc(-c3nccc(Nc4ccc(-c5cn[nH]c5)cc4)n3)cc21 (stereo not shown) [TDI01505, (6-(4-((4-(1H-pyrazol-4-yl)phenyl)amino)pyrimidin-2-yl)-1-methyl-1H-indol-2-yl) (3-hydroxy-3-(trifluoromethyl)pyrrolidin-1-yl)methanone] | 209 nM | 5670 nM
Cn1c(C(=O)N2CCC(C(F)(F)F)C2)cc2ccc(-c3nccc(Nc4ccc(-c5cn[nH]c5)cc4)n3)cc21 (stereo not shown) [TDI01506, (6-(4-((4-(1H-pyrazol-4-yl)phenyl)amino)pyrimidin-2-yl)-1-methyl-1H-indol-2-yl)(3-(trifluoromethyl)pyrrolidin-1-yl) methanone] | 295 nM | 7300 nM
Cn1c(C(=O)N2CCC(F)(F)C2)cc2ccc(-c3nccc(Nc4ccc(-c5cn[nH]c5)cc4)n3)cc21 [TDI01507, (6-(4-((4-(1H-pyrazol-4-yl)phenyl)amino)pyrimidin-2-yl)-1-methyl-1H-indol-2-yl)(3,3-difluoropyrrolidin-1-yl)methanone] | 113 nM | 6840 nM
Cn1c(C(=O)N2CC(F)(F)C2)cc2ccc(-c3nc(Nc4ccc(-c5cn[nH]c5)cc4)c4sccc4n3)cc21 [TDI01508, (6-(4-((4-(1H-pyrazol-4-yl)phenyl)amino)thieno[3,2-d]pyrimidin-2-yl)-1-methyl-1H-indol-2-yl)(3,3-difluoroazetidin-1-yl)methanone] | 159 nM | > 10000 nM

Further lines, results first:

IC50 [1] | IC50 [2] | Structure (SMILES)
22 nM | 3630 nM | Cn1c(C(=O)N2CC3C(C2)C3(F)F)cc2ccc(-c3nccc(Nc4ccc(-c5cn[nH]c5)cc4)n3)cc21 (stereo not shown) [TDI01512, (6-(4-((4-(1H-pyrazol-4-yl)phenyl)amino)pyrimidin-2yl)-1-methyl-1H-indol-2-yl)(6,6-difluoro-3-azabicyclo[3.1.0]hexan-3-yl)methanone]
269 nM | 7420 nM | Cn1c(C(=O)N2CCC3(C2)CC3(F)F)cc2ccc(-c3nccc(Nc4ccc(-c5cn[nH]c5)cc4)n3)cc21 (stereo not shown) [TDI01513, (6-(4-{(4-(1H-pyrazol-4-yl)phenyl)amino)pyrimidin-2-yl)-1-methyl-1H-indol-2-yl)(1,1-difluoro-5-azaspiro[2.4]heptan-5-yl)methanone]
49 nM | 2730 nM | Cn1c(C(=O)N2C[C@@H](F)[C@@H](F)C2)cc2ccc(-c3nccc(Nc4ccc(-c5cn[nH]c5)cc4)n3)cc21 [TDI01514, (6-(4-((4-(1H-pyrazol-4-yl)phenyl)amino)pyrimidin-2-yl)-1-methyl-1H-indol-2-yl) ((3S,4R)-3,4-difluoropyrrolidin-1-yl)methanone]
110 nM | 6860 nM | Cn1c(C(=O)N2CC(=CC#N)C2)cc2ccc(-c3nccc(Nc4ccc(-c5cn[nH]c5)cc4)n3)cc21 [TDI01515, 2-(1-(6-(4-((4-(1H-pyrazol-4-yl)phenyl)amino)pyrimidin-2-yl)-1-methyl-1H-indole-2-carbonyl)azetidin-3-ylidene) acetonitrile]
92 nM | > 10000 nM | CC(=O)C1CN(C(=O)c2cc3ccc(-c4nccc(Nc5ccc(-c6cn[nH]c6)cc5)n4)cc3n2C)C1 [TDI01517, 1-(1-(6-(4-((4-(1H-pyrazol-4-yl)phenyl)amino)pyrimidin-2-yl)-1-methyl-1H-indole-2-caibonyl)azetidin-3-yl)ethan-1-one]
78 nM | 3030 nM | Cn1c(C(=O)N2C[C@@H](O)[C@H](F)C2)cc2ccc(-c3nccc(Nc4ccc(-c5cn[nH]c5)cc4)n3)cc21 [TDI01518, (6-(4-((4-(lH-pyrazol-4-yl)phenyl)amino)pyrimidin-2-yl)-1-methyl-1H-indol-2-yl)((3R,4R)-3-fluoro-4-hydroxypyrrolidin-1-yl)methanone]
102 nM | 5240 nM | Cn1c(C(=O)N2C[C@@H](F)[C@H](Br)C2)cc2ccc(-c3nccc(Nc4ccc(-c5cn[nH]c5)cc4)n3)cc21 [TDI01519, (6-(4-((4-(1H-py razol-4-yl)phenyl)amino)pyrimidin-2-yl)-1-methyl-1H-indol-2-yl)((3R,4R)-3-bromo-4-fluoropyrrolidin-1-yl)methanone]
15 nM | > 10000 nM | Cn1c(C(=O)N2C[C@@H](O)[C@@H](F)C2)cc2ccc(-c3nccc(Nc4ccc(-c5cn[nH]c5)cc4)n3)cc21 [TDI01520, (6-(4-((4-(1H-pyrazol-4-yl)phenyl)amino)pyrimidin-2-yl)-1-methyl-1H-indol-2-yl)((3S,4R)-3-fluoro-4-hydroxypyrrolidin-1-yl)methanone]
86 nM | 1890 nM | Cn1c(C(=O)N2CC(O)(C(F)(F)F)C2)cc2ccc(-c3nccc(Nc4ccc(-c5cn[nH]c5)cc4)n3)cc21 [TDI01523, (6-(4-((4-(1H-pyrazol-4-yl)phenyl)amino)pyrimidin-2-yl)-1-methyl-1H-indol-2-yl)(3-hydroxy-3-(trifluoromethyl)azetidin-1-yl)methanone]
30 nM | 1420 nM | Cn1c(C(=O)N2CC(F)(CF)C2)cc2ccc(-c3nccc(Nc4ccc(-c5cn[nH]c5)cc4)n3)cc21 [TDI01524, (6-(4-((4-(1H-pyrazol-4-yl)phenyl)amino)pyrimidin-2-yl)-1-methyl-1H-indol-2-yl)(3-fluoro-3-(fluoromethyl)azetidin-1-yl)methanone]
335 nM | > 10000 nM | O=C(c1cc2ccc(-c3nc(Nc4ccc(-c5cn[nH]c5)cc4)c4sccc4n3)cc2s1)N1CC(F)(F)C1 [TDI01525, (6-(4-((4-(1H-pyrazol-4-yl)phenyl)-amino)thieno-[3,2-d]-pyrimidin-2-yl)benzo[b]-thiophen-2-yl)(3,3-difluoro-azetidin-1-yl)methanone]

Source: US11390609B2, “Rho-associated protein kinase inhibitor, pharmaceutical composition comprising same, and preparation method and use thereof” (BEIJING TIDE PHARMACEUTICAL CO., LTD., priority 2017, dated 2022)
